Measured values taken from the supplement of paper PMC10307832.

Key:
Test in all cases: relative viability (nuclei count vs DMSO), 5 days (fraction); higher = more cells survive
201T = test system: 201T
Procedure, shortened: (§1)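 For relative viability, nuclei counts in treated wells were divided by those in vehicle wells. Lung cancer cell lines had been pin-tool dosed in 1536-well plates the day after seeding and cultured for 5 days, then fixed and stained in one step (final 0.05% Triton X-100, 1% formaldehyde, 1 ug/ml Hoechst) and imaged at 4×. Doses were one drug alone or a fixed anchor-drug dose plus five library-drug doses (not always all listed) in √10 steps, and values are duplicate-plate medians.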

A-427 = test system: A-427
Procedure, shortened: as §1

ABC-1 = test system: ABC-1
Procedure, shortened: as §1

BEN = test system: BEN
Procedure, shortened: as §1

CAL-12T = test system: CAL-12T
Procedure, shortened: as §1

H3255 = test system: H3255
Procedure, shortened: as §1

LC-2-ad = test system: LC-2-ad
Procedure, shortened: as §1

LCLC-97TM1 = test system: LCLC-97TM1
Procedure, shortened: as §1

NCI-H1650 = test system: NCI-H1650
Procedure, shortened: as §1

NCI-H1651 = test system: NCI-H1651
Procedure, shortened: as §1

NCI-H1915 = test system: NCI-H1915
Procedure, shortened: as §1

NCI-H1944 = test system: NCI-H1944
Procedure, shortened: as §1

NCI-H2023 = test system: NCI-H2023
Procedure, shortened: as §1

NCI-H2087 = test system: NCI-H2087
Procedure, shortened: as §1

NCI-H441 = test system: NCI-H441
Procedure, shortened: as §1

NCI-H460 = test system: NCI-H460
Procedure, shortened: as §1

NCI-H520 = test system: NCI-H520
Procedure, shortened: as §1

NCI-H596 = test system: NCI-H596
Procedure, shortened: as §1

NCI-H650 = test system: NCI-H650
Procedure, shortened: as §1

NCI-H661 = test system: NCI-H661
Procedure, shortened: as §1

NCI-H727 = test system: NCI-H727
Procedure, shortened: as §1

PC-3 [JPC-3] = test system: PC-3 [JPC-3]
Procedure, shortened: as §1

Structure (SMILES): CCN(CC)CCCCNc1ncc2cc(-c3cc(OC)cc(OC)c3)c(NC(=O)NC(C)(C)C)nc2n1 + CCNC(=O)c1noc(-c2cc(C(C)C)c(O)cc2O)c1-c1ccc(CN2CCOCC2)cc1 [Luminespib] (partner 0.01 µM)
- relative viability (201T; first compound 0.01 µM): 1.09
- relative viability (201T; first compound 0.03162 µM): 0.955
- relative viability (201T; first compound 0.1 µM): 1.11
- relative viability (201T; first compound 0.3162 µM): 1.08
- relative viability (201T; first compound 1 µM): 0.932
- relative viability (A-427; first compound 0.01 µM): 1.01
- relative viability (A-427; first compound 0.03162 µM): 1.01
- relative viability (A-427; first compound 0.1 µM): 1.09
- relative viability (A-427; first compound 0.3162 µM): 1.03
- relative viability (A-427; first compound 1 µM): 0.872
- relative viability (ABC-1; first compound 0.01 µM): 0.731
- relative viability (ABC-1; first compound 0.03162 µM): 0.405
- relative viability (ABC-1; first compound 0.1 µM): 0.832
- relative viability (ABC-1; first compound 0.3162 µM): 0.416
- relative viability (ABC-1; first compound 1 µM): 0.693
- relative viability (BEN; first compound 0.01 µM): 0.249
- relative viability (BEN; first compound 0.03162 µM): 0.243
- relative viability (BEN; first compound 0.1 µM): 0.545
- relative viability (BEN; first compound 0.3162 µM): 0.496
- relative viability (BEN; first compound 1 µM): 0.297
- relative viability (CAL-12T; first compound 0.01 µM): 0.63
- relative viability (CAL-12T; first compound 0.03162 µM): 0.338
- relative viability (CAL-12T; first compound 0.1 µM): 0.363
- relative viability (CAL-12T; first compound 0.3162 µM): 0.445
- relative viability (CAL-12T; first compound 1 µM): 0.347
- relative viability (H3255; first compound 0.01 µM): 0.73
- relative viability (H3255; first compound 0.03162 µM): 0.824
- relative viability (H3255; first compound 0.1 µM): 0.915
- relative viability (H3255; first compound 0.3162 µM): 0.992
- relative viability (H3255; first compound 1 µM): 0.833
- relative viability (LC-2-ad; first compound 0.01 µM): 0.971
- relative viability (LC-2-ad; first compound 0.03162 µM): 1.12
- relative viability (LC-2-ad; first compound 0.1 µM): 1.21
- relative viability (LC-2-ad; first compound 0.3162 µM): 1.04
- relative viability (LC-2-ad; first compound 1 µM): 1.11
- relative viability (LCLC-97TM1; first compound 0.01 µM): 0.743
- relative viability (LCLC-97TM1; first compound 0.03162 µM): 0.867
- relative viability (LCLC-97TM1; first compound 0.1 µM): 1.02
- relative viability (LCLC-97TM1; first compound 0.3162 µM): 0.818
- relative viability (LCLC-97TM1; first compound 1 µM): 0.775
- relative viability (NCI-H1650; first compound 0.01 µM): 0.227
- relative viability (NCI-H1650; first compound 0.03162 µM): 0.214
- relative viability (NCI-H1650; first compound 0.1 µM): 0.204
- relative viability (NCI-H1650; first compound 0.3162 µM): 0.206
- relative viability (NCI-H1650; first compound 1 µM): 0.203
- relative viability (NCI-H1651; first compound 0.01 µM): 0.886
- relative viability (NCI-H1651; first compound 0.03162 µM): 0.875
- relative viability (NCI-H1651; first compound 0.1 µM): 0.779
- relative viability (NCI-H1651; first compound 0.3162 µM): 1.33
- relative viability (NCI-H1651; first compound 1 µM): 0.781
- relative viability (NCI-H1915; first compound 0.01 µM): 0.885
- relative viability (NCI-H1915; first compound 0.03162 µM): 0.863
- relative viability (NCI-H1915; first compound 0.1 µM): 1.02
- relative viability (NCI-H1915; first compound 0.3162 µM): 0.932
- relative viability (NCI-H1915; first compound 1 µM): 0.711
- relative viability (NCI-H1944; first compound 0.01 µM): 0.705
- relative viability (NCI-H1944; first compound 0.03162 µM): 0.747
- relative viability (NCI-H1944; first compound 0.1 µM): 0.762
- relative viability (NCI-H1944; first compound 0.3162 µM): 0.822
- relative viability (NCI-H1944; first compound 1 µM): 0.603
- relative viability (NCI-H2023; first compound 0.01 µM): 0.663
- relative viability (NCI-H2023; first compound 0.03162 µM): 1.05
- relative viability (NCI-H2023; first compound 0.1 µM): 0.745
- relative viability (NCI-H2023; first compound 0.3162 µM): 0.833
- relative viability (NCI-H2023; first compound 1 µM): 0.545
- relative viability (NCI-H2087; first compound 0.01 µM): 0.172
- relative viability (NCI-H2087; first compound 0.03162 µM): 0.154
- relative viability (NCI-H2087; first compound 0.1 µM): 0.161
- relative viability (NCI-H2087; first compound 0.3162 µM): 0.177
- relative viability (NCI-H2087; first compound 1 µM): 0.158
- relative viability (NCI-H441; first compound 0.01 µM): 0.313
- relative viability (NCI-H441; first compound 0.03162 µM): 0.422
- relative viability (NCI-H441; first compound 0.1 µM): 0.344
- relative viability (NCI-H441; first compound 0.3162 µM): 0.353
- relative viability (NCI-H441; first compound 1 µM): 0.362
- relative viability (NCI-H460; first compound 0.01 µM): 0.0378
- relative viability (NCI-H460; first compound 0.03162 µM): 0.0357
- relative viability (NCI-H460; first compound 0.1 µM): 0.0341
- relative viability (NCI-H460; first compound 0.3162 µM): 0.0358
- relative viability (NCI-H460; first compound 1 µM): 0.0473
- relative viability (NCI-H520; first compound 0.01 µM): 0.203
- relative viability (NCI-H520; first compound 0.03162 µM): 0.228
- relative viability (NCI-H520; first compound 0.1 µM): 0.229
- relative viability (NCI-H520; first compound 0.3162 µM): 0.289
- relative viability (NCI-H520; first compound 1 µM): 0.207
- relative viability (NCI-H596; first compound 0.01 µM): 1.03
- relative viability (NCI-H596; first compound 0.03162 µM): 1.05
- relative viability (NCI-H596; first compound 0.1 µM): 1.02
- relative viability (NCI-H596; first compound 0.3162 µM): 1.01
- relative viability (NCI-H596; first compound 1 µM): 0.621
- relative viability (NCI-H650; first compound 0.01 µM): 0.74
- relative viability (NCI-H650; first compound 0.03162 µM): 0.729
- relative viability (NCI-H650; first compound 0.1 µM): 0.736
- relative viability (NCI-H650; first compound 0.3162 µM): 0.864
- relative viability (NCI-H650; first compound 1 µM): 0.848
- relative viability (NCI-H661; first compound 0.01 µM): 0.922
- relative viability (NCI-H661; first compound 0.03162 µM): 0.964
- relative viability (NCI-H661; first compound 0.1 µM): 0.968
- relative viability (NCI-H661; first compound 0.3162 µM): 0.982
- relative viability (NCI-H661; first compound 1 µM): 0.925
- relative viability (NCI-H727; first compound 0.01 µM): 0.251
- relative viability (NCI-H727; first compound 0.03162 µM): 0.323
- relative viability (NCI-H727; first compound 0.1 µM): 0.28
- relative viability (NCI-H727; first compound 0.3162 µM): 0.278
- relative viability (NCI-H727; first compound 1 µM): 0.327
- relative viability (PC-3 [JPC-3]; first compound 0.01 µM): 0.814
- relative viability (PC-3 [JPC-3]; first compound 0.03162 µM): 0.738
- relative viability (PC-3 [JPC-3]; first compound 0.1 µM): 0.725
- relative viability (PC-3 [JPC-3]; first compound 0.3162 µM): 0.746
- relative viability (PC-3 [JPC-3]; first compound 1 µM): 0.662
